The test system of the experiment is RAW 267.4 cells. As to the kind of experiment: Osteo Assay pit formation, osteoclast-mediated bone degradation. Format: cell-based, mouse. Here is the method: FIG. 4 represents the KBU2046 inhibition of osteoclast function. FIG. 4A compares effects on Raf1 activation. RAW 267.4 cells were treated with RANKL for 4 days, treated with 10 μM KBU2046 for the indicated time periods, and Western blot for the denoted proteins performed. (B) Effects on cell morphology. RAW 267.4 cells were treated with RANKL and with KBU2046 for 4 days, or not, and denoted, and stained for actin (green) and DAPI (blue); white arrow denotes an actin ring, yellow arrow a resorptive cavity. Representative immunofluorescent images are depicted. (C) Tartrate resistant acid phosphatase (TRAP) expression. […] RAW 267.4 cells were plated onto Osteo Assay plates, treated with RANKL for 6 days and with KBU2046 (or vehicle for controls) as indicated and bone surface area quantified. Data are the mean±SEM (N=3 replicates) of bone surface area, expressed as the percentage of control cells; * denotes P<0.05 compared to control.
To determine whether KBU2046 inhibits osteoclast-mediated bone degradation, we used Corning Osteo Assay Surface plates, which are coated with calcium-phosphate-based bone mineral. This platform supports osteoclast growth, allowing for the quantitative measurement of bone degradation, and has previously been used to measure bisphosphonate-mediated inhibition of bone degradation (40). […]

Data on one molecule can be found in patent publication US20220133894A1, “BISPHOSPHONATE-LINKED COMPOUNDS” (OREGON HEALTH & SCIENCE UNIVERSITY, priority 2019, published 2022).

Structures are written as SMILES.

On to `O=C1c2ccccc2OCC1c1ccc(F)cc1` (centres unmarked) [KBU2046, 3-(4-fluorophenyl)chroman-4-one], for which the “increase of bone surface area compared with control (mean±SEM)” value (10 μmol/L KBU2046, RANKL, 6 days) is reported as 28%±1.4%. Also, the bone surface area entry (plates pre-treated with ZA at 2, 10 and 20 μM, KBU2046 10 μM) was “significantly increased”.
